The values that follow come from ChEMBL document CHEMBL3286238, “Synthesis of a novel legumain-cleavable colchicine prodrug with cell-specific toxicity” (Bioorg Med Chem, 2014).

Data set [1] deals with HEK293. Nature of the data set: Cytotoxicity against HEK293 cells after 48 hrs by MTS assay. The data set is classed as cell-based, Homo sapiens. To be noted: for EC50: Homo sapiens, HEK293, 48 h; for EC25: human, hek293, 48 h. (In general: Tetrazolium assays rely on reduction of a dye to a coloured formazan, in cell work by metabolically active cells.)
Data set [2] in a line: Cytotoxicity against human M38L cells after 48 hrs by MTS assay. The format is cell-based. To be noted: for EC50: Homo sapiens, M38L; for EC25: human, m38l.
Data set [3] can be described thus: Potency index, ratio of EC50 for valyl colchicine to EC50 for compound against HEK293 cells after 48 hrs by MTS assay. To be noted: human, read-out: Ratio EC50. The data set is classed as cell-based.

Structures are written as SMILES.

The term EC50 denotes the concentration at which the effect is half-maximal. Usually EC25 stands for the point of the concentration-response curve where the effect stands at 25%. A high value points to a need for much substance. As to `COc1cc2c(c(OC)c1OC)-c1ccc(OC)c(=O)cc1[C@@H](NC(=O)[C@@H](N)C(C)C)CC2.Cl`, in data set [1], the concentration giving a half-maximal response (EC50) came to 0.3 µM and the EC25 stood at 0.08 µM. For the same compound, in data set [2], the EC50 was determined as 0.3 µM and the EC25 was 0.2 µM.
For `COc1cc2c(c(OC)c1OC)-c1ccc(OC)c(=O)cc1[C@@H](NC(C)=O)CC2` [COLCHICINE], in data set [1], a half-maximal response (EC50) required 0.03 µM and the EC25 turned out to be 0.02 µM. In data set [3], the selectivity ratio at 48 h was found to be 10. In data set [2], this compound returned an EC50 of 0.03 µM and an EC25 of 0.02 µM.
